Measurements reported in patent US20240245658A1, “TAAR1 AND SEROTONIN MODULATORS, AND PHARMACEUTICAL COMPOSITIONS, AND METHODS OF USE THEREOF” (Sunovion Pharmaceuticals Inc., priority 2021, published 2024).
Where two headings read alike, the source gives them in different places.

Tests used:
Assay type in all cases: cell-based
[1] = molecular target: T1, human 5-HT7 receptor (Homo sapiens, UniProt P34969); test: 5HT7 Antagonism Assay (Euroscreen FAST-0499C), cAMP HTRF; conditions: CHO-K1 cells expressing human 5-HT7, reference agonist at EC80, cAMP HTRF
T1 construct: host or cells: CHO-K1
Description: 5HT7 Antagonism Assay Protocol (Euroscreen FAST-0499C)
CHO-K1 cells expressing the human 5-HT7 receptor, grown prior to the test in media without antibiotic, were detached by gentle flushing with PBS-EDTA (5 mM EDTA), recovered by centrifugation and resuspended in assay buffer (Krebs-Ringer HEPES buffer: 5 mM KCl, 1.25 mM MgSO4, 124 mM NaCl, 25 mM HEPES, 13.3 mM Glucose, 1.25 mM KH2PO4, 1.45 mM CaCl2), 0.5 g/l BSA, supplemented with 1 mM IBMX).
Dose response curves were performed in parallel with reference compounds (e.g., 5-carboxamidotryptamine (5-CT)).
For antagonist testing in a 384 well plate: 5 μl of cells (3000 cells) were mixed with 5 μl of a mix of test compound and reference agonist (for a final assay concentration corresponding to its EC80) diluted in assay buffer. The plates were then incubated for about 30 minutes at about room temperature. After addition of the lysis buffer containing cAMP-d2 and anti-cAMP cryptate detection reagents, plates were incubated for about 1 hour at about room temperature, and fluorescence ratios were measured according to the manufacturer's specifications (HTRF kit: cAMP Gs dynamic kit, Cisbio Bioassays, 62AM4PEJ).
Compounds were tested at the following nanomolar concentrations, in duplicate: 0.3 nM, 1 nM, 3 nM, 10 nM, 30 nM, 100 nM, 300 nM, 1,000 nM, 3,000 nM, and 10,000 nM.

[2] = molecular target: T2, human 5-HT2A receptor (Homo sapiens, UniProt P28223); test: 5HT2A Antagonism Assay (Euroscreen FAST-05051), IP-One HTRF
T2 construct: host or cells: CHO-K1
Description: 5HT2A Antagonism Assay Protocol (Euroscreen FAST-05051)
CHO-K1 cells expressing the human 5-HT2A receptor grown to mid-log phase in culture media without antibiotics, were detached with PBS-EDTA, centrifuged, and resuspended in the IP-One Gq kit (Cisbio Bioassays, 62IPAPEC) stimulation buffer.
For antagonist testing in a 384 well plate: 5 μl of cells (20,000 cells) were mixed with 5 μl of a mix of test compound and reference agonist (for a final assay concentration corresponding to its EC80) diluted in stimulation buffer. The plate was incubated for 60 minutes at 37° C. in a humidified atmosphere of 95% air with 5% CO2, then 5 μL of IP1-d2 and anti-IP1 cryptate detection reagents were added to each well, the plates were incubated for about 1 hour at about room temperature. Fluorescence ratios are measured according to the manufacturer's specification (IP-One Gq kit (Cisbio Bioassays, 62IPAPEC).
Dose response curves were performed in parallel with reference compounds (e.g., α-methyl-5-HT. Compounds were tested at the following nanomolar concentrations, in duplicate: 0.3 nM, 1 nM, 3 nM, 10 nM, 30 nM, 100 nM, 300 nM, 1,000 nM, 3,000 nM, and 10,000 nM

[3] = molecular target: T3, human TAAR1 receptors (Homo sapiens, UniProt Q96RJ0); test: TAAR1 Agonism Assay: cAMP HTRF assay for Gs coupled receptor TAAR1 (Euroscreen FAST-0987C); conditions: CHO-K1 cells expressing human TAAR1, cAMP HTRF
T3 construct: host or cells: CHO-K1
T3 sequence (Q96RJ0 1-339): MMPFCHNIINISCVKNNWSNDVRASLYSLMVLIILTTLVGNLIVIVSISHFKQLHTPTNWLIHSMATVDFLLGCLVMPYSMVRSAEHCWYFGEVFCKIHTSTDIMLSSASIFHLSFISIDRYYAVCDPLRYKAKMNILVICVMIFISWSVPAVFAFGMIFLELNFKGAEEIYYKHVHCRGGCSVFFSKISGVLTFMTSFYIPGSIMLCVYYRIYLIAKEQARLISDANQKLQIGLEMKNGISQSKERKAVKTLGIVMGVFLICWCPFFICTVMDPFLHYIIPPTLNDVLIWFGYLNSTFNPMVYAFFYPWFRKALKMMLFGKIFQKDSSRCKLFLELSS
Outline: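 cAMP accumulation detected by HTRF fluorescence ratio, reagents added in lysis buffer and incubated 1 h at about room temperature. Beforehand, cells (about 3,000 per well) sat with test compound at ten concentrations from 0.3 to 10,000 nM in duplicate for roughly 30 min at about room temperature; tyramine dose-response run alongside.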

[4] = read-out: 5-HT2A (IC50), CHO-K1 cells expressing human 5-HT2A, reference agonist at EC80, IP-One
[5] = 5-HT2A (IC50), CHO-K1 cells expressing human 5-HT2A, reference agonist at EC80, IP-One

T2 sequence (P28223 whole entry): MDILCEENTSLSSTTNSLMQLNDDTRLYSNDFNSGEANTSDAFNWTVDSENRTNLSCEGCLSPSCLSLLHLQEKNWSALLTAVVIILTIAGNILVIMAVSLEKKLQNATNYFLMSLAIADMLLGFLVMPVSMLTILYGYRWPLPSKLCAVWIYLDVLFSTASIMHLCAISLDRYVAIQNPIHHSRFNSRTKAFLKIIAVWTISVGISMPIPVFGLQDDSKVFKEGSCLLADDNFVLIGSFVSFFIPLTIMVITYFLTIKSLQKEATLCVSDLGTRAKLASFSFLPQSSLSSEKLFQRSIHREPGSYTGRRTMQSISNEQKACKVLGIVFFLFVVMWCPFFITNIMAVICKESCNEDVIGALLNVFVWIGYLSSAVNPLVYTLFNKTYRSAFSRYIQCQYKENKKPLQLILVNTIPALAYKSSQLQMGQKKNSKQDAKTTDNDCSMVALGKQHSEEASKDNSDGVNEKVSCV
T1 sequence (P34969 whole entry): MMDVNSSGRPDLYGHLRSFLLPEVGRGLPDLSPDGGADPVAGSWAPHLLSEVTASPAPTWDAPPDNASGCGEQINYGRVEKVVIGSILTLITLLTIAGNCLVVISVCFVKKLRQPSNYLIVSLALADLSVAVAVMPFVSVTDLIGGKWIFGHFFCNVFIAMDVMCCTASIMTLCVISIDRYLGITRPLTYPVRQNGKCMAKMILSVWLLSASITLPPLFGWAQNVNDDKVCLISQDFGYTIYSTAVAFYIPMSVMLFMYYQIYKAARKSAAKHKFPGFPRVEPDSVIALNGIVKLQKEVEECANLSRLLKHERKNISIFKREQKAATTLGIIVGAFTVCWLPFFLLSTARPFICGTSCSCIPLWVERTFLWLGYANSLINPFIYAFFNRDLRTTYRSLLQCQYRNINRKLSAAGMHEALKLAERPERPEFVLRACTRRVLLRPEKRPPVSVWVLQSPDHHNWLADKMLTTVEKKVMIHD

CNCC1Oc2ccccc2Oc2cccnc21 (single isomer, unassigned) [Compound 58, (R*)-1-(11H-benzo[2,3][1,4]dioxepino[6,5-b]pyridin-11-yl)-N-methylmethanamine]
IC50 [1]: 1 to 10 µM
IC50 [2, 4]: 1 to 10 µM
EC50 [3]: < 1 µM

NCC1Oc2ccccc2Oc2cccnc21 (single isomer, unassigned) [Compound 59, (S*)-(11H-benzo[2,3][1,4]dioxepino[6,5-b]pyridin-11-yl)methanamine]
IC50 [1]: ≥ 10 µM
IC50 [2, 5]: > 10 µM
EC50 [3]: < 1 µM

NCC1Oc2ccccc2Oc2cccnc21 (single isomer, unassigned) [Compound 60, (R*)-(11H-benzo[2,3][1,4]dioxepino[6,5-b]pyridin-11-yl)methanamine]
IC50 [1]: ≥ 10 µM
IC50 [2, 4]: > 10 µM
EC50 [3]: < 1 µM

NCC1Cc2c(F)cccc2Oc2ccccc21 (single isomer, unassigned) [Compound 80, (R*)-(1-fluoro-10,11-dihydrodibenzo[b,f]oxepin-10-yl)methanamine]
IC50 [1]: ≥ 10 µM
IC50 [2, 5]: < 1 µM
EC50 [3]: < 1 µM

NCC1Cc2c(F)cccc2Oc2ccccc21 (single isomer, unassigned) [Compound 81, (S*)-(1-fluoro-10,11-dihydrodibenzo[b,f]oxepin-10-yl)methanamine]
IC50 [1]: ≥ 10 µM
IC50 [2, 4]: < 1 µM
EC50 [3]: < 1 µM

CNCC1Cc2c(F)cccc2Oc2ccccc21 (single isomer, unassigned) [Compound 82, (R*)-1-(1-fluoro-10,11-dihydrodibenzo[b,f]oxepin-10-yl)-N-methylmethanamine]
IC50 [1]: 1 to 10 µM
IC50 [2, 5]: < 1 µM
EC50 [3]: < 1 µM

CNCC1Cc2c(F)cccc2Oc2ccccc21 (single isomer, unassigned) [Compound 83, (S*)-1-(1-fluoro-10,11-dihydrodibenzo[b,f]oxepin-10-yl)-N-methylmethanamine]
IC50 [1]: 1 to 10 µM
IC50 [2, 4]: < 1 µM
EC50 [3]: > 10 µM

NCC1Cc2cccc(F)c2Oc2ccccc21 (single isomer, unassigned) [Compound 84, (R*)-(4-fluoro-10,11-dihydrodibenzo[b,f]oxepin-10-yl)methanamine]
IC50 [1]: ≥ 10 µM
IC50 [2, 5]: > 10 µM
EC50 [3]: < 1 µM

NCC1Cc2cccc(F)c2Oc2ccccc21 (single isomer, unassigned) [Compound 85, (S*)-(4-fluoro-10,11-dihydrodibenzo[b,f]oxepin-10-yl)methanamine]
IC50 [1]: ≥ 10 µM
IC50 [2, 5]: 1 to 10 µM
EC50 [3]: < 1 µM

CNCC1Cc2cccc(F)c2Oc2ccccc21 (single isomer, unassigned) [Compound 86, (R*)-(4-fluoro-10,11-dihydrodibenzo[b,f]oxepin-10-yl)-N-methylmethanamine]
IC50 [1]: 1 to 10 µM
IC50 [2, 5]: < 1 µM
EC50 [3]: < 1 µM

CNCC1Cc2cccc(F)c2Oc2ccccc21 (single isomer, unassigned) [Compound 87, (S*)-(4-fluoro-10,11-dihydrodibenzo[b,f]oxepin-10-yl)-N-methylmethanamine]
IC50 [1]: 1 to 10 µM
IC50 [2, 4]: < 1 µM
EC50 [3]: < 1 µM

NCC1Cc2ccc(F)cc2Oc2ccccc21 (single isomer, unassigned) [Compound 89, (S*)-(3-fluoro-10,11-dihydrodibenzo[b,f]oxepin-10-yl)methanamine]
IC50 [1]: ≥ 10 µM
IC50 [2, 5]: < 1 µM
EC50 [3]: < 1 µM

CNCC1Cc2ccc(F)cc2Oc2ccccc21 (single isomer, unassigned) [Compound 90, (R*)-(3-fluoro-10,11-dihydrodibenzo[b,f]oxepin-10-yl)-N-methylmethanamine]
IC50 [1]: 1 to 10 µM
IC50 [2, 5]: < 1 µM
EC50 [3]: > 10 µM

CNCC1Cc2ccc(F)cc2Oc2ccccc21 (single isomer, unassigned) [Compound 91, (S*)-(3-fluoro-10,11-dihydrodibenzo[b,f]oxepin-10-yl)-N-methylmethanamine]
IC50 [1]: < 1 µM
IC50 [2, 4]: < 1 µM
EC50 [3]: < 1 µM

NCC1Cc2ccccc2Oc2ccc(F)cc21 (single isomer, unassigned) [Compound 92, (R*)-(8-fluoro-10,11-dihydrodibenzo[b,f]oxepin-10-yl)methanamine]
IC50 [1]: ≥ 10 µM
IC50 [2, 5]: < 1 µM
EC50 [3]: < 1 µM

CNCC1Cc2ccccc2Oc2ccc(F)cc21 (single isomer, unassigned) [Compound 94, (R*)-(8-fluoro-10,11-dihydrodibenzo[b,f]oxepin-10-yl)-N-methylmethanamine]
IC50 [1]: 1 to 10 µM
IC50 [2, 5]: < 1 µM
EC50 [3]: < 1 µM

CNCC1Cc2ccccc2Oc2ccc(F)cc21 (single isomer, unassigned) [Compound 95, (S*)-(8-fluoro-10,11-dihydrodibenzo[b,f]oxepin-10-yl)-N-methylmethanamine]
IC50 [1]: 1 to 10 µM
IC50 [2, 4]: < 1 µM
EC50 [3]: 1 to 10 µM

NCC1Cc2cc(F)ccc2Oc2ccccc21 (single isomer, unassigned) [Compound 96, (R*)-(2-fluoro-10,11-dihydrodibenzo[b,f]oxepin-10-yl)methanamine]
IC50 [1]: ≥ 10 µM
IC50 [2, 5]: < 1 µM
EC50 [3]: < 1 µM

CNCC1Cc2cc(F)ccc2Oc2ccccc21 (single isomer, unassigned) [Compound 98, (R*)-(2-fluoro-10,11-dihydrodibenzo[b,f]oxepin-10-yl)-N-methylmethanamine]
IC50 [1]: 1 to 10 µM
IC50 [2, 5]: < 1 µM
EC50 [3]: < 1 µM

NCC1Cc2ccccc2Oc2c(F)cccc21 (single isomer, unassigned) [Compound 100, (R*)-(6-fluoro-10,11-dihydrodibenzo[b,f]oxepin-10-yl)methanamine]
IC50 [1]: ≥ 10 µM
IC50 [2, 5]: < 1 µM
EC50 [3]: < 1 µM

NCC1Cc2ccccc2Oc2c(F)cccc21 (single isomer, unassigned) [Compound 101, (S*)-(6-fluoro-10,11-dihydrodibenzo[b,f]oxepin-10-yl)methanamine]
IC50 [1]: ≥ 10 µM
IC50 [2, 5]: > 10 µM
EC50 [3]: < 1 µM

CNCC1Cc2ccccc2Oc2c(F)cccc21 (single isomer, unassigned) [Compound 102, (R*)-(6-fluoro-10,11-dihydrodibenzo[b,f]oxepin-10-yl)-N-methylmethanamine]
IC50 [1]: ≥ 10 µM
IC50 [2, 5]: < 1 µM
EC50 [3]: < 1 µM

NCC1Cc2ccccc2Oc2cccc(F)c21 (single isomer, unassigned) [Compound 104, (R*)-(9-fluoro-10,11-dihydrodibenzo[b,f]oxepin-10-yl)methanamine]
IC50 [1]: ≥ 10 µM
IC50 [2, 5]: 1 to 10 µM
EC50 [3]: < 1 µM

NCC1Cc2ccccc2Oc2cccc(F)c21 (single isomer, unassigned) [Compound 105, (S*)-(9-fluoro-10,11-dihydrodibenzo[b,f]oxepin-10-yl)methanamine]
IC50 [1]: ≥ 10 µM
IC50 [2, 5]: > 10 µM
EC50 [3]: 1 to 10 µM

CNCC1Cc2ccccc2Oc2cccc(F)c21 (single isomer, unassigned) [Compound 106, (R*)-(9-fluoro-10,11-dihydrodibenzo[b,f]oxepin-10-yl)-N-methylmethanamine]
IC50 [1]: ≥ 10 µM
IC50 [2, 5]: < 1 µM
EC50 [3]: < 1 µM
